Calls of active or inactive are those of the source. Cut-off read from the data, not from the text of the source: actives have a measured IC50 and inactives only a lower limit.

The assay deals with Envelope glycoprotein gp160 (Human immunodeficiency virus 1, UniProt Q6QLK5). The assay is described as follows: cell-free HIV fusion peptide-binding blockers – biochemical, uHTS, fluorescence dequenching, […] (AID 1986).
Envelope glycoprotein gp160, sequence (Q6QLK5 whole entry, the tested form may be a part): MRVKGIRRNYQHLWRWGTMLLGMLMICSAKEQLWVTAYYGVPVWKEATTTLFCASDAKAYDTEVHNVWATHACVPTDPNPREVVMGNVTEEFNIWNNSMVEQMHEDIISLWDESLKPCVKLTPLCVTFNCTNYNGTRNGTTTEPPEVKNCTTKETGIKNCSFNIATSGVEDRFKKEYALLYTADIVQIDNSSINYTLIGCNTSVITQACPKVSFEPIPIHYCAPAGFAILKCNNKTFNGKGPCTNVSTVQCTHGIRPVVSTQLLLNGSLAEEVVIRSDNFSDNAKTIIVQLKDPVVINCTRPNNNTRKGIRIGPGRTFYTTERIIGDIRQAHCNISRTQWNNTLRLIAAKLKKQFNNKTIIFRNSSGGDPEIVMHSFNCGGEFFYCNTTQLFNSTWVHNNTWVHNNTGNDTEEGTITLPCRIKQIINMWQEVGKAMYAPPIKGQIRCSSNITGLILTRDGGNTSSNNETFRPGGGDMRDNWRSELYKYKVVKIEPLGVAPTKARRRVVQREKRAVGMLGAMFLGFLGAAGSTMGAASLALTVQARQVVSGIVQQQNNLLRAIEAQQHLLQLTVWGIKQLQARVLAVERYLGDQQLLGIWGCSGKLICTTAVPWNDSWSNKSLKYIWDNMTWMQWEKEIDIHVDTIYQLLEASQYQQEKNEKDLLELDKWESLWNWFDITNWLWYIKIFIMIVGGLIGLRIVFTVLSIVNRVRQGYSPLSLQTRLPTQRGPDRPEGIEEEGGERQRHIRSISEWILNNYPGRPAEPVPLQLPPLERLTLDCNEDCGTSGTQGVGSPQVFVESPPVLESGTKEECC

Turning to `CCOC(=O)c1sc2nc3c(SCCC(=O)O)cc(C(=O)c4cc(OC)ccc4O)cn3c(=O)c2c1C`, the half-maximal inhibitory concentration (IC50) (in general, the concentration that inhibits the measured activity by half) was 16 µM (active).

For the origin of these results see ChEMBL document CHEMBL1201862, “PubChem BioAssay data set” (2004).
